Results taken from article PMC12415213, “A genome-scale drug discovery pipeline uncovers therapeutic targets and a unique p97 allosteric binding site in Schistosoma mansoni” (Proceedings of the National Academy of Sciences of the …, 2025).
“Also recorded” adds a separate entry of the source. Read-outs that look alike come from different tables or passages of the source.

Legend:
[1] = system: S. mansoni vcp/p97 (Smp_018240); assay: High-throughput screen of S. mansoni p97 (Kinase-Glo, single concentration); type: biochemical, Schistosoma mansoni; conditions: for Screen Inhibition (%): 10 μM compound, normalized to CB-5083 control; for inhibition of S. mansoni p97 function in the screen: high-throughput screen, 10 μM
Experimental: (§1) Evaluation of p97’s ATPase activity and compound potency
(§2) For manual ATP consumption assays, 1 µM p97 was incubated with 1% DMSO or inhibitor (1% DMSO final) in assay buffer [50 mM Tris (pH 7.5), 20 mM MgCl2, 1 mM EDTA, 0.5 mM tris(2-carboxyethyl)phosphine (TCEP)] for 5 minutes prior to the addition of 20 µM ATP in a 384-well plate for a total reaction volume of 10 µL, and a final concentration of 500nM enzyme and 10 µM ATP. The reaction was allowed to proceed for 50 minutes at room temperature before adding equivalent volume of Kinase-Glo Plus reagent (Promega), and a further incubation of 10 minutes in the dark. […]
High-throughput screening (HTS) assay
Kinase-Glo (Promega, part K1214) was purchased from Promega. Microtiter plates (384 wells) were purchased from Perkin Elmer. All chemicals included in the UTSW library were sourced from commercial sources […]
TimTec (500)] or UT Southwestern chemists (https://www.utsouthwestern.edu/research/core-facilities/high- […]
throughput-screening/libraries/). […]
concentration of 10 µM (0.2% DMSO). Luminescence was read by EnVision multimode plate reader (Perkin-Elmer). Assay conditions were consistent between manual and high-throughput assays [10 µM ATP, 50 mM Tris (pH 7.5), 20 mM MgCl2, 1 mM EDTA, 0.5 mM tris(2-carboxyethyl)phosphine (TCEP)]. The plates were then incubated for 50 min at room temperature before addition of Kinase-Glo reagent and further incubation in the dark for 10 minutes before reading luminescence. […]
were obtained to determine activity of compounds on the enzyme. […]

adult S. mansoni [2] = assay: Single-concentration (10 μM) treatment of adult worms, attachment and morphology; type: cell-based, Schistosoma mansoni; conditions: in vitro culture
Experimental: (§3) DMSO). All selected compounds were obtained from commercial vendors (Medchemexpress, Selleck Chemicals, Sigma-Aldrich, ApexBio, Tocris, Santa Cruz Biotechnology, and Cayman Chemical Company) (Dataset S4) with […]
(§4) the activity of the desired compounds. Roughly 5 adult worm pairs were placed in 3mL Basch medium in a 12-well culture vessel, and incubated at 37° C, 5% CO2 for the length of the experiment. Compound was administered at D0, D1, and D2, media and drug refreshed every 24 hr. Worms were then allowed to remain in culture until D5, where a final assessment of worm attachment to tissue culture substate was made by light microscopy.
Observations on movement and morphology were also recorded. A negative control (0.1% DMSO) and positive control (PZQ; 10 µM in 0.1% DMSO) were included in each experiment, and each experiment was repeated in triplicate for validation. […]

H. sapiens p97 (P55072) = molecular target: T1, H. sapiens p97 (P55072) (Homo sapiens, UniProt P55072); assay: Kinase-Glo ATP consumption assay, recombinant H. sapiens p97; type: biochemical; conditions: 100 μM to 1 nM
T1 construct: purified recombinant full-length (1-806aa) H; 6xHis (N); made in house; host or cells: E. coli BL21 (DE3)

[3] = molecular target: S. mansoni p97 (Smp_018240) (Schistosoma mansoni, UniProt G4M0P7); type: biochemical
Experimental: as §1
as §2, with “dark. Luminescence was read using a BioTek Synergy 2 plate reader” for “dark.”
1 μM, 500 nM, 100 nM, 50 nM, 10 nM, 5 nM, 1 nM, and 0 nM) in triplicate, maintaining a concentration of 1% […]
were calculated using GraphPad Prism. […]

[4] = system: K48 polyubiquitinated proteins in adult S. mansoni; assay: Western blot of K48 polyubiquitinated proteins in lysate of drug-treated worms; type: cell-based, Schistosoma mansoni; conditions: adult worm lysate after 48 h of treatment
Experimental: as §3
the activity of the desired compounds. Roughly 5 adult worm pairs were placed in 3mL Basch medium in a 12-well culture vessel, and incubated at 37° C, 5% CO2 for the length of the experiment. […]
(§5) For drug treatment studies, 10 male adult worms (single or paired with females) were supplemented with either 0.1% DMSO or inhibitor (0.1% DMSO final). For all experiments assessing on-target effects of potential parasite […]
(§6) After 48 hr, male parasites were separated […]
(§7) further processing. Male worm samples were homogenized with a pestle in 50 µL lysis buffer containing 2X […]
(Roche, cOmplete Mini, EDTA-free Tablets) and 10 mM DTT. The lysates were then sonicated on high for 5 min (30 sec on, 30 sec off) using a Bioruptor UCD-200. Lysates were centrifuged for 5 min at 10,000 g to remove […]
debris. Total protein was measured using the Detergent Compatible Bradford Assay (Pierce). 50 µg of protein samples denatured in SDS Sample buffer (95°C for 5 min) were separated on a Bio-Rad 4-20% TGX Stain-Free gel along with Precision Plus Protein Dual Color Standards (Bio-Rad) as a marker. Proteins were then transferred to a nitrocellulose membrane (Bio-Rad). The membrane was blocked in a 1:5 solution of Li-Cor Odyssey Blocking buffer in PBST for 1 hr before being immunoblotted overnight at 4°C with 1:500 K48-linkage Specific […]
(1:10,000) (Developmental Studies Hybridoma Bank, JLA20) diluted in a 1:5 solution of Li-Cor Odyssey Blocking buffer in PBST. The membrane was washed 3x in TBST and then incubated in 1:5 Li-Cor Odyssey […]
in TBST 3x before being imaged on a LiCor Odyssey Infrared Imager. […]

adult S. mansoni [5] = assay: Dose-response of compounds on adult worms (attachment to culture substrate, EC50); type: cell-based, Schistosoma mansoni; conditions: read-out: EC50 of commercial inhibitors of human orthologs on adult parasites
Experimental: as §3, §4
Observations on movement and morphology were also recorded. A negative control (0.1% DMSO) and positive control (PZQ; 10 µM in 0.1% DMSO) were included in each experiment, and each experiment was repeated in triplicate for validation. For compounds that caused complete detachment in replicate experiments, the treatment was expanded to three concentrations (10 µM, 5 µM, and 1 µM) following the same treatment schedule and controls as detailed above.
Each titration experiment was performed in triplicate according to the treatment regimen described above, using DMSO and PZQ as appropriate controls. Morphologies and motility were assessed by light microscopy, and dose-response curves were calculated using the primary readout of parasite attachment to tissue culture substrate in GraphPad Prism.
as §5, §6, §7
(Roche, cOmplete Mini, EDTA-free Tablets) and 10 mM DTT. The lysates were then sonicated on high for 5 min (30 sec on, 30 sec off) using a Bioruptor UCD-200. […]
Compounds were tested from 100 μM – 1 nM. Values were calculated using Prism.

[6] = recombinant Hsp97, Kinase-Glo, NA = no notable effect on the enzyme at tested concentrations, >100 = IC50 predicted above 100 μM or maximal inhibition not achieved
[7] = H. sapiens p97 IC50 versus S. mansoni p97 IC50
[8] = recombinant full-length enzyme, Kinase-Glo, 100 μM to 1 nM
[9] = recombinant full-length enzyme, Kinase-Glo

T1 sequence (P55072 whole entry): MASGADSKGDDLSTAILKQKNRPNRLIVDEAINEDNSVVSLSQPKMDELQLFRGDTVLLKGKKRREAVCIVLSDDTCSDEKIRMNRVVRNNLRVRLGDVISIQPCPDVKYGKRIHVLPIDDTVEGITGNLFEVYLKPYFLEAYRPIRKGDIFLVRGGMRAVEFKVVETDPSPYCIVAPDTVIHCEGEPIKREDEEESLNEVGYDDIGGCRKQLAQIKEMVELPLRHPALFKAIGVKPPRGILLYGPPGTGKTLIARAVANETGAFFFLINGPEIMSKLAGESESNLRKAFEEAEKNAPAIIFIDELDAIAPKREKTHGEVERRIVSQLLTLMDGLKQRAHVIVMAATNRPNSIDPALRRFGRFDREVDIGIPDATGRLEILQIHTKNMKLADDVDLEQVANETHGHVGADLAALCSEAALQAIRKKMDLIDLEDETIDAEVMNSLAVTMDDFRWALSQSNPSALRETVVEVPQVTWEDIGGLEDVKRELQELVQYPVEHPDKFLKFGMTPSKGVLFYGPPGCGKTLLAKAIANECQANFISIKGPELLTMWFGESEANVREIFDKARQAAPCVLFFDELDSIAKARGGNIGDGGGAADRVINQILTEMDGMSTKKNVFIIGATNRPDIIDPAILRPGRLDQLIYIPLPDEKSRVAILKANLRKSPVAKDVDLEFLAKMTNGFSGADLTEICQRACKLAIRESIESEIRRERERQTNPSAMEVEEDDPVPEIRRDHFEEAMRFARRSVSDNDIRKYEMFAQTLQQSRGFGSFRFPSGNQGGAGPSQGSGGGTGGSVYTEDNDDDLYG
S. mansoni p97 (Smp_018240), sequence (G4M0P7 entry or part of it): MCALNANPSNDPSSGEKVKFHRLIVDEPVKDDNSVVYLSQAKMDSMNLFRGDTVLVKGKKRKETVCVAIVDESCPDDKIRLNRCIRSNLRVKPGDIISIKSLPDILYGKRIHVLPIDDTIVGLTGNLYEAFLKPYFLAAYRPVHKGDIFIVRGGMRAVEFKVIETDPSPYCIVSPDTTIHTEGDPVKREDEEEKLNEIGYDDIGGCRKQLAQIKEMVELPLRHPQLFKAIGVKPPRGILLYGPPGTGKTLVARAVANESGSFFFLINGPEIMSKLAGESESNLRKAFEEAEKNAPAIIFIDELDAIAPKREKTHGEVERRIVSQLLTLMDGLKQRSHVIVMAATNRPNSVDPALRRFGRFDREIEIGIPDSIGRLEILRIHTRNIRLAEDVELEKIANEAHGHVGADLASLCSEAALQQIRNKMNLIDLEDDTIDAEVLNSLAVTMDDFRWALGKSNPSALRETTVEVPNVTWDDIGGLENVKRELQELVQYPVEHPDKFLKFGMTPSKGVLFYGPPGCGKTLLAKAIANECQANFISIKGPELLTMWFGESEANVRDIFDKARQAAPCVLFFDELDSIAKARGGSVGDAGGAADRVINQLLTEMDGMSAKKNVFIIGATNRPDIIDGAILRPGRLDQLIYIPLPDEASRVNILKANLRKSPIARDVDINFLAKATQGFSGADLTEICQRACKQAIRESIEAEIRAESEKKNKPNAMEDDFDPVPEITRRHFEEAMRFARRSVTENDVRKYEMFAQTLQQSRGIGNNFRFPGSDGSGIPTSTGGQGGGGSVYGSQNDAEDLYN

Molecule	Screen Inhibition (%) [1] [%]	phenotype of adult worms after treatment (adult S. mansoni [2])	IC50 (H. sapiens p97 (P55072); [6]) [nM]	IC50 [3] [nM]	Fold Selectivity (parasite enzyme over human enzyme) [3, 7] [fold]	also measured
O=C(C=Cc1ccccc1)Nc1ccc2oc(-c3ccccc3)nc2c1 [Compound 135]	1.1	–	–	–	–	inhibition of S. mansoni p97 function in the screen [1]: inactive
O=C(C#Cc1ccccc1)Nc1ccc2oc(-c3ccncc3)nc2c1 [Compound 242]	47	led to death in adult parasites; also recorded: ultimately leading to their death	12000 ± 310	1400 ± 110	8.6	–
O=C(C#Cc1ccccc1)Nc1ccc2oc(-c3ccccn3)nc2c1 [Compound 243]	46	led to death in adult parasites; also recorded: ultimately leading to their death	20000 ± 540	2100 ± 750	–	Fold Selectivity (parasite enzyme over human enzyme) [3]: 9.5 fold
O=C(C#Cc1ccccc1)Nc1ccc2oc(-c3cccnc3)nc2c1 [Compound 244]	16	did not have any adverse effects on worm health and survival	–	–	–	–
O=C(C#Cc1ccccc1)Nc1ccc2oc(-c3ccccc3)nc2c1 [Compound 245]	36	did cause detachment, it did not lead to parasite death	–	3800 ± 190	–	–
O=C(/C=C\c1ccccc1)Nc1ccc2oc(-c3ccccc3)nc2c1 [Compound 324]	1.1	–	–	–	–	inhibition of S. mansoni p97 function in the screen [1]: inactive
O=C(CCc1ccccc1)Nc1ccc2oc(-c3ccccn3)nc2c1 [Compound 326]	2.2	–	–	–	–	inhibition of S. mansoni p97 function in the screen [1]: inactive
O=C(C#CC1CC1)Nc1ccc2oc(-c3ccccn3)nc2c1 [Compound 732]	–	still active on worms	–	–	–	–
COc1ccc(C#CC(=O)Nc2ccc3oc(-c4ccccn4)nc3c2)cc1 [Compound 734]	–	decreased activity on the worms	83000 ± 6500	48000 ± 2600	1.7	–
O=C(C#Cc1cccc(Cl)c1)Nc1ccc2oc(-c3ccccn3)nc2c1 [Compound 735]	–	still active on worms	7300 ± 660	11000 ± 470	0.70	–
O=C(C#Cc1ccc(Cl)cc1)Nc1ccc2oc(-c3ccccn3)nc2c1 [Compound 736]	–	decreased activity on the worms	6700 ± 55	5900 ± 1300	1.1	–
O=C(C#Cc1ccccn1)Nc1ccc2oc(-c3ccccn3)nc2c1 [Compound 737]	–	decreased activity on the worms	13000 ± 2200	3000 ± 410	4.3	–
O=C(C#Cc1cccnc1)Nc1ccc2oc(-c3ccccn3)nc2c1 [Compound 738]	–	death of the parasites	780 ± 140	420 ± 57	1.9	–
O=C(C#Cc1ccncc1)Nc1ccc2oc(-c3ccccn3)nc2c1 [Compound 739]	–	death of the parasites	320 ± 26	–	2.1	accumulation of K48 polyubiquitinated proteins by western blot [4]: on-target activity by western blot; IC50 [3, 8]: 150 nM
Cc1cccnc1-c1nc2cc(NC(=O)C#Cc3ccncc3)ccc2o1 [Compound 804]	–	–	140 ± 62	190 ± 63	0.70	–
Cc1ccnc(-c2nc3cc(NC(=O)C#Cc4ccncc4)ccc3o2)c1 [Compound 805]	–	–	140 ± 78	170 ± 92	0.80	–
Cc1ccc(-c2nc3cc(NC(=O)C#Cc4ccncc4)ccc3o2)nc1 [Compound 806]	–	–	510 ± 160	470 ± 170	1.1	–
Cc1cccc(-c2nc3cc(NC(=O)C#Cc4ccncc4)ccc3o2)n1 [Compound 807]	–	–	490 ± 57	670 ± 170	0.70	–
c1ccc(CNc2nc(NCc3ccccc3)c3ccccc3n2)cc1 [DbeQ, reference compound]	–	activity on the worms	–	–	–	IC50 (H. sapiens p97 (P55072); [9]): 910 ± 390 nM; accumulation of K48 polyubiquitinated proteins by western blot [4]: did not observe the same accumulation; IC50 [3, 8]: 12000 nM
CC1(C)C(N(O)C(=O)Nc2ccc(Cl)cc2)N(c2ccc(Cl)cc2)C(=O)N1CC(=O)N/N=C/C=C/c1ccc([N+](=O)[O-])o1 (stereo not shown) [Eeyarestatin I, reference compound]	–	effective	–	–	–	accumulation of K48 polyubiquitinated proteins by western blot [4]: did not see significant increases in K48 abundance
COc1cccc2c(NCc3ccccc3)nc(-n3c(N)nc4ccccc43)nc12 [ML240, reference compound]	–	killed parasites quickly	–	–	–	IC50 (H. sapiens p97 (P55072); [9]): 330 ± 61 nM; accumulation of K48 polyubiquitinated proteins by western blot [4]: did not observe the same accumulation; Fold Selectivity (parasite enzyme over human enzyme) [3]: ~ fivefold; IC50 [3, 8]: 66 ± 9.7 nM
CC(C)N1CCN(CCNC2CCN(c3cccc(-c4cc5cc(F)ccc5[nH]4)c3)CC2)CC1 [UPCDC-30245, reference compound]	–	effective	–	–	–	IC50 (H. sapiens p97 (P55072); [9]): 970 ± 67 nM; accumulation of K48 polyubiquitinated proteins by western blot [4]: did not see significant increases in K48 abundance; selectivity between schistosome and human p97 [3]: selective in favor of the human enzyme; IC50 [3, 8]: 4100 nM
AG-270	–	–	–	–	–	EC50 (adult S. mansoni [5]): 180 nM
